Residues, ends and D or L forms follow the SMILES beside them.
Biological target: IL-17RA/IL17RC dimerization induced by IL-17A (Homo sapiens, UniProt Q16552)
Assay: IL-17RA/IL17RC dimerization assay in response to IL-17A (PathHunter Cytokine Receptor Assay)
Type: cell-based
Conditions: IL-17A at EC80; read-out: IC50 in IL-17RA/IL7RC dimerization assay
Outline: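 Receptor dimerization was read as chemiluminescence from complemented β-galactosidase after IL-17A at EC80 concentration for 6–16 h at 37 °C. Peptides were added 60 min before agonist, at 37 °C or room temperature, with 1% vehicle. Percent inhibition used the EC80-stimulated and vehicle wells as references.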

IL-17RA/IL17RC dimerization induced by IL-17A, sequence (Q16552 24-155): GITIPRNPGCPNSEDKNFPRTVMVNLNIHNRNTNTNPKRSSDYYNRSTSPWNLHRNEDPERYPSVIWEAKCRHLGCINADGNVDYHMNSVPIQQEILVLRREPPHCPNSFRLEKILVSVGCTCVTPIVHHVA

Structure (SMILES)	IC50
CC[C@H](C)[C@H](NC(=O)[C@@H](NC(=O)[C@@H](NC(=O)[C@H](Cc1c[nH]cn1)NC(=O)[C@@H](NC(C)=O)C(C)C)C(C)C)[C@@H](C)O)C(=O)N1CCC[C@H]1C(=O)N[C@@H](C)C(=O)N[C@@H](CC(=O)O)C(=O)N[C@@H](CC(C)C)C(=O)N[C@@H](Cc1ccc(O)cc1)C(=O)N[C@@H](CC(N)=O)C(=O)N[C@@H](Cc1ccccc1)C(=O)N[C@@H](Cc1ccccc1)C(=O)N[C@@H](CCCNC(=N)N)C(=O)N[C@@H](CCCNC(=N)N)C(N)=O [SEQ ID NO: 149] (Ac-VHVTIPADLYNFFRR-NH2)	< 0.5 µM
CC(=O)N[C@H](C(=O)N[C@@H](Cc1c[nH]cn1)C(=O)N[C@@H](Cc1ccccc1)C(=O)N[C@@H](CCC(N)=O)C(=O)N[C@@H](Cc1ccccc1)C(=O)N1CCC[C@H]1C(=O)N[C@@H](CCC(N)=O)C(=O)N[C@@H](CC(=O)O)C(=O)N[C@@H](CC(C)C)C(=O)N[C@@H](Cc1c[nH]c2ccccc12)C(=O)N[C@@H](CCC(=O)O)C(=O)N[C@@H](Cc1c[nH]c2ccccc12)C(=O)N[C@H](C(=O)N[C@@H](CCCNC(=N)N)C(=O)N[C@@H](CCCNC(=N)N)C(N)=O)C(C)C)C(C)C [SEQ ID NO: 150] (Ac-VHFQFPQDLWEWVRR-NH2)	< 0.5 µM
CC[C@H](C)[C@H](NC(=O)[C@@H](NC(=O)[C@H](Cc1ccccc1)NC(=O)[C@H](Cc1c[nH]cn1)NC(=O)[C@@H](NC(C)=O)C(C)C)[C@@H](C)O)C(=O)N1CCC[C@H]1C(=O)N[C@@H](CCC(N)=O)C(=O)N[C@@H](CC(=O)O)C(=O)N[C@@H](CC(C)C)C(=O)N[C@@H](Cc1ccc(O)cc1)C(=O)N[C@@H](CC(N)=O)C(=O)N[C@@H](Cc1c[nH]c2ccccc12)C(=O)N[C@@H](CCCNC(=N)N)C(=O)N[C@@H](CCCNC(=N)N)C(N)=O [SEQ ID NO: 151] (Ac-VHFTIPQDLYNWRR-NH2)	< 0.5 µM
CC[C@H](C)[C@H](NC(=O)[C@@H](NC(=O)[C@H](Cc1ccccc1)NC(=O)[C@H](Cc1c[nH]cn1)NC(=O)[C@@H](NC(C)=O)C(C)C)[C@@H](C)O)C(=O)N1CCC[C@H]1C(=O)N[C@@H](C)C(=O)N[C@@H](CC(=O)O)C(=O)N[C@@H](CC(C)C)C(=O)N[C@@H](Cc1ccc(O)cc1)C(=O)N[C@@H](CC(N)=O)C(=O)N[C@@H](Cc1ccccc1)C(=O)N[C@H](C(=O)N[C@@H](CCCNC(=N)N)C(=O)N[C@@H](CCCNC(=N)N)C(N)=O)C(C)C [SEQ ID NO: 152] (Ac-VHFTIPADLYNFVRR-NH2)	< 0.5 µM
CC[C@H](C)[C@H](NC(=O)[C@H](CCC(N)=O)NC(=O)[C@H](Cc1ccccc1)NC(=O)[C@H](Cc1c[nH]cn1)NC(=O)[C@@H](NC(C)=O)C(C)C)C(=O)N1CCC[C@H]1C(=O)N[C@@H](CCC(N)=O)C(=O)N[C@@H](CC(=O)O)C(=O)N[C@@H](CC(C)C)C(=O)N[C@@H](Cc1ccc(O)cc1)C(=O)N[C@@H](CC(N)=O)C(=O)N[C@@H](Cc1ccccc1)C(=O)N[C@@H](Cc1ccccc1)C(=O)N[C@@H](CCCNC(=N)N)C(=O)N[C@@H](CCCNC(=N)N)C(N)=O [SEQ ID NO: 153] (Ac-VHFQIPQDLYNFFRR-NH2)	< 0.5 µM
CC(=O)N[C@H](C(=O)N[C@@H](Cc1c[nH]cn1)C(=O)N[C@@H](Cc1ccccc1)C(=O)N[C@@H](CCC(N)=O)C(=O)N[C@@H](Cc1ccccc1)C(=O)N1CCC[C@H]1C(=O)N[C@@H](CCC(N)=O)C(=O)N[C@@H](CCC(=O)O)C(=O)N[C@@H](Cc1c[nH]c2ccccc12)C(=O)N[C@@H](Cc1ccc(O)cc1)C(=O)N[C@@H](CC(N)=O)C(=O)N[C@@H](Cc1c[nH]c2ccccc12)C(=O)N[C@@H](Cc1ccccc1)C(=O)N[C@@H](CCCNC(=N)N)C(=O)N[C@@H](CCCNC(=N)N)C(N)=O)C(C)C [SEQ ID NO: 154] (Ac-VHFQFPQEWYNWFRR-NH2)	< 0.5 µM
CC(=O)N[C@H](C(=O)N[C@@H](CCCNC(=N)N)C(=O)N[C@@H](Cc1ccccc1)C(=O)N[C@@H](CCC(N)=O)C(=O)N[C@@H](Cc1ccccc1)C(=O)NCC(=O)N[C@@H](CCC(N)=O)C(=O)N[C@@H](CCC(=O)O)C(=O)N[C@@H](Cc1c[nH]c2ccccc12)C(=O)N[C@@H](Cc1ccc(O)cc1)C(=O)N[C@@H](CC(N)=O)C(=O)N[C@@H](Cc1ccccc1)C(=O)N[C@@H](Cc1ccccc1)C(=O)N[C@@H](CCCNC(=N)N)C(=O)N[C@@H](CCCNC(=N)N)C(N)=O)C(C)C [SEQ ID NO: 155] (Ac-VRFQFGQEWYNFFRR-NH2)	< 0.5 µM
CC[C@H](C)[C@H](NC(=O)[C@@H](NC(=O)[C@@H](NC(=O)[C@H](Cc1c[nH]cn1)NC(=O)[C@@H](NC(=O)CNC(=O)[C@H](C)NC(=O)CNC(=O)[C@@H]1CCCN1C(=O)[C@@H](NC(=O)CNC(=O)[C@H](C)NC(=O)CNC(=O)[C@@H]1CCCN1C(=O)[C@@H](NC(C)=O)C(C)C)C(C)C)[C@@H](C)CC)C(C)C)[C@@H](C)O)C(N)=O [SEQ ID NO: 156] (Ac-VPGAGVPGAGIHVTI-NH2)	< 0.5 µM
CC[C@H](C)[C@H](NC(=O)CNC(=O)[C@H](C)NC(=O)CNC(=O)[C@@H]1CCCN1C(=O)[C@@H](NC(=O)CNC(=O)[C@H](C)NC(=O)CNC(=O)[C@@H]1CCCN1C(=O)[C@@H](NC(C)=O)C(C)C)C(C)C)C(=O)N[C@@H](Cc1c[nH]cn1)C(=O)N[C@H](C(=O)N[C@H](C(=O)N[C@H](C(=O)N1CCC[C@H]1C(=O)N[C@@H](C)C(N)=O)[C@@H](C)CC)[C@@H](C)O)C(C)C [SEQ ID NO: 157] (Ac-VPGAGVPGAGIHVTIPA-NH2)	< 0.5 µM
CC[C@H](C)[C@H](NC(=O)[C@H](Cc1c[nH]c2ccccc12)NC(=O)[C@H](CC(=O)O)NC(=O)[C@H](Cc1c[nH]c2ccccc12)NC(=O)[C@H](CC(C)C)NC(=O)[C@H](CC(=O)O)NC(=O)[C@H](C)NC(=O)[C@@H]1CCCN1C(=O)[C@@H](NC(=O)[C@@H](NC(=O)[C@@H](NC(=O)[C@H](Cc1c[nH]cn1)NC(=O)[C@H](C)NC(C)=O)C(C)C)[C@@H](C)O)[C@@H](C)CC)C(=O)N[C@@H](CC(N)=O)C(=O)N[C@@H](CCCCN)C(N)=O [SEQ ID NO: 158] (Ac-AHVTIPADLWDWINK-NH2)	< 10 µM
CC[C@H](C)[C@H](NC(=O)[C@H](Cc1c[nH]c2ccccc12)NC(=O)[C@H](CC(=O)O)NC(=O)[C@H](Cc1c[nH]c2ccccc12)NC(=O)[C@H](CC(C)C)NC(=O)[C@H](CC(=O)O)NC(=O)[C@H](C)NC(=O)[C@@H]1CCCN1C(=O)[C@@H](NC(=O)[C@@H](NC(=O)[C@@H](NC(=O)[C@H](Cc1c[nH]cn1)NC(=O)CNC(C)=O)C(C)C)[C@@H](C)O)[C@@H](C)CC)C(=O)N[C@@H](CC(N)=O)C(=O)N[C@@H](CCCCN)C(N)=O [SEQ ID NO: 159] (Ac-GHVTIPADLWDWINK-NH2)	< 10 µM
CC[C@H](C)[C@H](NC(=O)[C@H](Cc1c[nH]c2ccccc12)NC(=O)[C@H](CC(=O)O)NC(=O)[C@H](Cc1c[nH]c2ccccc12)NC(=O)[C@H](CC(C)C)NC(=O)[C@H](CC(=O)O)NC(=O)[C@H](C)NC(=O)[C@@H]1CCCN1C(=O)[C@@H](NC(=O)[C@@H](NC(=O)[C@@H](NC(=O)[C@H](Cc1c[nH]cn1)NC(=O)[C@H](CC(C)C)NC(C)=O)C(C)C)[C@@H](C)O)[C@@H](C)CC)C(=O)N[C@@H](CC(N)=O)C(=O)N[C@@H](CCCCN)C(N)=O [SEQ ID NO: 160] (Ac-LHVTIPADLWDWINK-NH2)	< 10 µM
